Patent US5420106A, “Method and composition having enhanced alpha-hydroxy acid skin permeation and retention” (priority 1994, dated 1995)

Experiments:
[1] = In-vitro skin permeation study of lactic acid, Franz diffusion cell at finite dose (14C-lactic acid); format: in vitro ADME
Experimental: The skin permeation test was conducted by the following procedure:
In-vitro Skin Permeation Study
(§1) Franz Diffusion Cell Study at Finite Dose
(§2) For each formulation, skin sections were mounted on three or four flat flange Franz diffusion cells (FDC 400) with a diffusional cross-section area of 1.2cm^2. About 60 to 100 mg of test formulation were placed on the stratum corneum surface of the skin in the donor compartment and the receptor compartment was filled with about 11 ml of normal saline. The receptor fluid was well stirred throughout the experiment and the temperature was maintained by circulating water at 37° C. through the water jacket of the diffusion cells. Precisely 500 μl of receptor fluid was collected in a scintillation vial at appropriate intervals for a period of 68 hours. […] The receptor fluid was replenished after each withdrawal. All the receptor fluid and replenished fluids were filtered using a 0.22 μm filter and thoroughly degassed before use.

[2] = in vivo; cited from earlier work
[3] = cited from earlier work
[4] = Skin retention of lactic acid (epidermis and dermis analysis after the permeation study); format: in vitro ADME
Experimental: as §1, §2
Cotton swabs were used during the rinsing procedure to recover the remaining surface dose. A circular incision was made in the skin exposed to the formulation. The epidermis at the circular edge was slowly lifted using a pointed flat spatula, and then separated from the dermis using forceps. The epidermis and dermis were transferred to previously weighed teflon tape and dried in a desiccator for 72 hours until a constant weight was obtained. […]

[5] = hydrated skin; cited from earlier work

In the case of `CCCCCCCCCCCCCC(=O)OC(C)C` [IPM, isopropyl myristate], the “skin permeation enhancer effect for lactic acid” value ([1]; FIGS. 1-2, IPM vs PGD in lysine lactate lotions) is reported as “better skin permeation enhancer for lactic acid than PGD”.
In the case of `CC(O)C(=O)O` (centres unmarked) [ammonium lactate], the skin irritation [2] is listed as “skin irritant to a degree which many patients find unacceptable”, the “potency for other dermatological disorders” value ([3]; U.S. Pat. No. 5,091,171, topical ammonium salts) is listed as “lost most of its potency” and the “effectiveness in treating dermatological disorders” value ([3]; topical) is listed as “very effective”. For the same compound, the “skin retention of lactic acid / α-hydroxy acid (general finding)” value [4] was “excellent lactic acid skin permeation and skin retention profiles” and the “skin retention of lactic acid” value ([4]; pH 4.6) was “excellent skin retention”.
For `CC(C)NCC(O)COc1cccc2ccccc12` (centres unmarked) [propranolol], the “permeation or permeation rate on hydration of skin” value [5] is given as “decreases the permeation rate by two fold”.
In the case of `CC(C)[C@H](N)C(=O)O` [valine], the “enhancement of skin permeation of lactic acid by valine” value [1] is reported as “does not enhance skin permeation of lactic acid”.
